Experimental data: PubChem BioAssay (NCI)
Where “and” joins values, the source holds several entries; their conditions need not be identical. Equal values may be shown once.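 Growth conditions: 96-well plates. Treatment: test compound, 48 hours, 5 concentrations. Analysis: linear interpolation between bracketing concentrations; unreached endpoints set to highest concentration. GI50: concentration for 50% inhibition of growth. Definition used: TGI = concentration required for complete inhibition of growth.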

What was measured:
Assay in all cases: NCI tumour cell line growth inhibition, 48 h
786-0 renal = tested on: 786-0 renal
CAKI-1 renal = tested on: CAKI-1 renal
CCRF-CEM leukemia = tested on: CCRF-CEM leukemia
HCT-116 colon = tested on: HCT-116 colon
MDA-MB-231 breast = tested on: MDA-MB-231 breast
SK-OV-3 ovarian = tested on: SK-OV-3 ovarian
SN12C renal = tested on: SN12C renal
SNB-75 CNS = tested on: SNB-75 CNS
SW-620 colon = tested on: SW-620 colon
T-47D breast = tested on: T-47D breast

Row | SMILES | GI50 (786-0 renal) [µM] | TGI (786-0 renal) | GI50 (CAKI-1 renal) [µM] | TGI (CAKI-1 renal) | GI50 (CCRF-CEM leukemia) [µM] | TGI (CCRF-CEM leukemia) | GI50 (HCT-116 colon) [µM] | TGI (HCT-116 colon) | GI50 (MDA-MB-231 breast) [µM] | TGI (MDA-MB-231 breast) | GI50 (SK-OV-3 ovarian) [µM] | TGI (SK-OV-3 ovarian) [µM] | GI50 (SN12C renal) [µM] | TGI (SN12C renal) | GI50 (SNB-75 CNS) [µM] | TGI (SNB-75 CNS) | GI50 (SW-620 colon) [µM] | TGI (SW-620 colon) [µM] | GI50 (T-47D breast) [µM] | TGI (T-47D breast)
1 | CC(C)=C[C@@H]1C[C@H](C)[C@H]2CC[C@H](C)c3c(O)c(OC4OC(C)C(O)C(O)C4O)c(C)c1c32 (stereo partly drawn) | 17.8 | 33 µM | 14.5 | 28.7 µM | 12.8 | 26.3 µM | 10.9 | 22.9 µM | 13.2 | 26.6 µM | 18.9 | 32.9 | 11.3 | 23.5 µM | 14.4 | 27.7 µM | 4.66 | 16.3 | 12.5 | 26.5 µM
2 | O=C(/C=C/c1ccc(O)c(O)c1)N1CCN(c2ccc(Cl)cc2)CC1 | 9.39 | 37 µM | 4.71 | 48 µM | 1.96 | 45.1 µM | 5.18 | 19.8 µM | 5.28 | 35.6 µM | 10.1 | 67.7 | 4.11 | 42.2 µM | 2.93 | 30.2 µM | 7.28 | 81.4 | 5.57 | 77 µM
3 | CNC(=O)CCN1CCN(CC/C=C2\c3ccccc3Sc3ccc(Cl)cc32)CC1 | 12.1 | 27.4 µM | 3.42 | 19.7 µM | 6.31 | 44.8 µM | 5.76 | 20.9 µM | 10.6 | 24.7 µM | 16.4 | 31.2 | 12.1 | 26.6 µM | 7.43 | 23.1 µM | 9.18 | 23.6 | 9.21 | 26.5 µM
4 | Cc1cc(C)c2nc3c(c(C(O)C4CCCCN4)c2c1)CC/C3=C\c1ccc(Cl)cc1 (stereo not drawn) |  | > 100 µM |  | > 100 µM |  | > 100 µM |  | > 100 µM |  | > 100 µM |  | > 100 |  | > 100 µM |  | > 100 µM |  | > 100 |  | > 100 µM
5 | COc1cc(-c2nc(-c3ccccc3)c(-c3ccccc3)[nH]2)cc(OC)c1O | 19.9 | 44 µM | 20.5 | 55.2 µM | 23.4 | 70.4 µM | 14.4 | 27.7 µM | 16.7 | 34.2 µM | 23.1 | 47.8 | 17.6 | 37.5 µM | 11.2 | 26.4 µM | 16.6 | 33.1 | 13.5 | 38.7 µM
6 | CN(C)CCCN1c2ccccc2Sc2ccc(C(F)(F)F)cc21 | 1.63 | 3.09 µM and 27.1 µM and 27.9 µM | 1.54 | 3.15 µM and 24 µM | 1.92 | 5 µM and 38.5 µM and 39 µM | 1.64 | 3.13 µM and 28.5 µM and 27.2 µM | 1.45 | 2.9 µM and 26.5 µM | 1.53 |  | 1.66 | 3.62 µM and 32.2 µM and 29.5 µM | 1.32 | 3.51 µM and 26 µM and 24.8 µM | 1.58 |  | 1.4 | 3.18 µM and 29.1 µM
7 | O=[N+]([O-])c1ccccc1N=Nc1c(O)[nH]c2c(Cl)cccc12 |  | 31.1 µM |  | 26.3 µM |  | > 100 µM |  | > 66.6 µM |  | 23.4 µM |  | 54.7 |  | > 57.7 µM |  | 51.7 µM |  | > 79 |  | > 75 µM
